Experimental data published in US10004701B2, “Methods and compositions for treating infection” (UNIVERSITY OF ROCHESTER, priority 2012, dated 2018).
Where a name gives a salt, the structure may show the parent alone. Read-outs that look alike come from different tables or passages of the source.

Experiments:
Assay in all cases: AK assay 384-well format, Prestwick library screening
K. pneumoniae = type: cell-based, Klebsiella pneumoniae; settings: for fold induction at 50 µM: Klebsiella pneumoniae, 3 h
E. coli = type: cell-based, Escherichia coli; settings: for fold induction at 50 µM: Escherichia coli, 3 h
E. cloacae = type: cell-based, Enterobacter cloacae; settings: for fold induction at 50 µM: Enterobacter cloacae, 3 h
[1] = system: A. baumannii strain 98-37-09; type: cell-based, Acinetobacter baumannii; settings: for fold induction at 50 µM: Acinetobacter baumannii, 983709, 3 h
E. faecium = type: cell-based, Enterococcus faecium; settings: for fold induction at 50 µM: Enterococcus faecium, 3 h
P. aeruginosa = type: cell-based, Pseudomonas aeruginosa; settings: for fold induction at 50 µM: Pseudomonas aeruginosa, 3 h
[2] = system: S. aureus strain USA300-0114; type: cell-based, Staphylococcus aureus; settings: for fold induction at 50 µM: Staphylococcus aureus, USA300, 3 h
[3] = 50 μM final drug concentration, 384-well format, cutoff for positive-scoring molecules 3-fold increase, read-out: AK-based Prestwick Library Screening Results, K. pneumoniae (increase in extracellular AK activity)
[4] = 50 μM final drug concentration, 384-well format, cutoff for positive-scoring molecules 3-fold increase, read-out: AK-based Prestwick Library Screening Results, E. coli (increase in extracellular AK activity)
[5] = 50 μM final drug concentration, 384-well format, cutoff for positive-scoring molecules 3-fold increase, read-out: AK-based Prestwick Library Screening Results, E. cloacae (increase in extracellular AK activity)
[6] = 50 μM final drug concentration, 384-well format, cutoff for positive-scoring molecules 3-fold increase, read-out: AK-based Prestwick Library Screening Results, A. baumannii (increase in extracellular AK activity)
[7] = 50 μM final drug concentration, 384-well format, cutoff for positive-scoring molecules 3-fold increase, read-out: AK-based Prestwick Library Screening Results, E. faecium (increase in extracellular AK activity)
[8] = 50 μM final drug concentration, 384-well format, cutoff for positive-scoring molecules 3-fold increase, read-out: AK-based Prestwick Library Screening Results, P. aeruginosa (increase in extracellular AK activity)
[9] = 50 μM final drug concentration, 384-well format, cutoff for positive-scoring molecules 3-fold increase, read-out: AK-based Prestwick Library Screening Results, S. aureus (increase in extracellular AK activity)
[10] = 50 μM final drug concentration, planktonic, cutoff for positive-scoring molecules 3-fold increase
[11] = 50 μM final drug concentration, cutoff for positive-scoring molecules 3-fold increase
[12] = 50 μM final drug concentration, […]
[13] = planktonic K. pneumoniae, 50 μM final drug concentration, cutoff for positive-scoring molecules 3-fold increase, read-out: AK-based Prestwick Library Screening Results, K. pneumoniae (increase in extracellular AK activity)
[14] = planktonic E. coli, 50 μM final drug concentration, cutoff for positive-scoring molecules 3-fold increase, read-out: AK-based Prestwick Library Screening Results, E. coli (increase in extracellular AK activity)
[15] = planktonic E. cloacae, 50 μM final drug concentration, cutoff for positive-scoring molecules 3-fold increase, read-out: AK-based Prestwick Library Screening Results, E. cloacae (increase in extracellular AK activity)
[16] = planktonic A. baumannii, 50 μM final drug concentration, cutoff for positive-scoring molecules 3-fold increase, read-out: AK-based Prestwick Library Screening Results, A. baumannii (increase in extracellular AK activity)
[17] = planktonic E. faecium, 50 μM final drug concentration, cutoff for positive-scoring molecules 3-fold increase, read-out: AK-based Prestwick Library Screening Results, E. faecium (increase in extracellular AK activity)
[18] = planktonic P. aeruginosa, 50 μM final drug concentration, cutoff for positive-scoring molecules 3-fold increase, read-out: AK-based Prestwick Library Screening Results, P. aeruginosa (increase in extracellular AK activity)
[19] = planktonic S. aureus, 50 μM final drug concentration, cutoff for positive-scoring molecules 3-fold increase, read-out: AK-based Prestwick Library Screening Results, S. aureus (increase in extracellular AK activity)

## [H]/N=C(/N)N/C(=N/[H])NCCc1ccccc1 [Phenformin hydrochloride]
K. pneumoniae; [3]
  fold induction at 50 µM: 0.6
E. coli; [4]
  fold induction at 50 µM: 0.8
E. cloacae; [5]
  fold induction at 50 µM: 0.8
[1]; [6]
  fold induction at 50 µM: 0.8
E. faecium; [7]
  fold induction at 50 µM: 1
P. aeruginosa; [8]
  fold induction at 50 µM: 0.7
[2]; [9]
  fold induction at 50 µM: 0.7

## C[C@@]1(O)CCOC(=O)C1 [Mevalonic-D, L acid lactone]
K. pneumoniae; [10]
  AK-based Prestwick Library Screening Results, K. pneumoniae (fold increase in extracellular AK activity): 0.8
E. coli; [10]
  AK-based Prestwick Library Screening Results, E. coli (fold increase in extracellular AK activity): 1.0
E. cloacae; [10]
  AK-based Prestwick Library Screening Results, E. cloacae (fold increase in extracellular AK activity): 0.9
[1]; [10]
  AK-based Prestwick Library Screening Results, A. baumannii (fold increase in extracellular AK activity): 0.9
E. faecium; [10]
  AK-based Prestwick Library Screening Results, E. faecium (fold increase in extracellular AK activity): 1.0
P. aeruginosa; [10]
  AK-based Prestwick Library Screening Results, P. aeruginosa (fold increase in extracellular AK activity): 0.8
[2]; [10]
  AK-based Prestwick Library Screening Results, S. aureus (fold increase in extracellular AK activity): 0.9

## Trimeprazine tartrate
K. pneumoniae; [11]
  AK-based Prestwick Library Screening Results, K. pneumoniae (fold increase in extracellular AK activity): 0.9
E. coli; [11]
  AK-based Prestwick Library Screening Results, E. coli (fold increase in extracellular AK activity): 1.2
E. cloacae; [11]
  AK-based Prestwick Library Screening Results, E. cloacae (fold increase in extracellular AK activity): 1.5
[1]; [11]
  AK-based Prestwick Library Screening Results, A. baumannii (fold increase in extracellular AK activity): 1.1
E. faecium; [11]
  AK-based Prestwick Library Screening Results, E. faecium (fold increase in extracellular AK activity): 1.0
P. aeruginosa; [11]
  AK-based Prestwick Library Screening Results, P. aeruginosa (fold increase in extracellular AK activity): 1.2
[2]; [11]
  AK-based Prestwick Library Screening Results, S. aureus (fold increase in extracellular AK activity): 1.1

## Pridinol methanesulfonate salt
K. pneumoniae; [12]
  AK-based Prestwick Library Screening Results, K. pneumoniae (fold increase in extracellular AK activity): 0.9
E. coli; [12]
  AK-based Prestwick Library Screening Results, E. coli (fold increase in extracellular AK activity): 1.1
E. cloacae; [12]
  AK-based Prestwick Library Screening Results, E. cloacae (fold increase in extracellular AK activity): 1.6
[1]; [12]
  AK-based Prestwick Library Screening Results, A. baumannii (fold increase in extracellular AK activity): 1.1
E. faecium; [12]
  AK-based Prestwick Library Screening Results, E. faecium (fold increase in extracellular AK activity): 1.1
P. aeruginosa; [12]
  AK-based Prestwick Library Screening Results, P. aeruginosa (fold increase in extracellular AK activity): 1.1
[2]; [12]
  AK-based Prestwick Library Screening Results, S. aureus (fold increase in extracellular AK activity): 1.2

## O=C(O)[C@]1(O)C[C@@H](O)[C@@H](O)[C@H](O)C1 [Quinic acid]
K. pneumoniae; planktonic K. pneumoniae, 50 μM final drug concentration, positive cutoff 3-fold increase, read-out: AK-based Prestwick library screening result, K. pneumoniae (fold increase in extracellular AK activity)
  fold induction at 50 µM: 1.3
E. coli; planktonic E. coli, 50 μM final drug concentration, positive cutoff 3-fold increase, read-out: AK-based Prestwick library screening result, E. coli (fold increase in extracellular AK activity)
  fold induction at 50 µM: 1.2
E. cloacae; planktonic E. cloacae, 50 μM final drug concentration, positive cutoff 3-fold increase, read-out: AK-based Prestwick library screening result, E. cloacae (fold increase in extracellular AK activity)
  fold induction at 50 µM: 1.2
[1]; planktonic A. baumannii, 50 μM final drug concentration, positive cutoff 3-fold increase, read-out: AK-based Prestwick library screening result, A. baumannii (fold increase in extracellular AK activity)
  fold induction at 50 µM: 1.4
E. faecium; planktonic E. faecium, 50 μM final drug concentration, positive cutoff 3-fold increase, read-out: AK-based Prestwick library screening result, E. faecium (fold increase in extracellular AK activity)
  fold induction at 50 µM: 1
P. aeruginosa; planktonic P. aeruginosa, 50 μM final drug concentration, positive cutoff 3-fold increase, read-out: AK-based Prestwick library screening result, P. aeruginosa (fold increase in extracellular AK activity)
  fold induction at 50 µM: 1.1
[2]; planktonic S. aureus, 50 μM final drug concentration, positive cutoff 3-fold increase, read-out: AK-based Prestwick library screening result, S. aureus (fold increase in extracellular AK activity)
  fold induction at 50 µM: 1.2

## Carbinoxamine maleate salt
K. pneumoniae; [10]
  AK-based Prestwick Library Screening Results, K. pneumoniae (fold increase in extracellular AK activity): 0.6
E. coli; [10]
  AK-based Prestwick Library Screening Results, E. coli (fold increase in extracellular AK activity): 0.7
E. cloacae; [10]
  AK-based Prestwick Library Screening Results, E. cloacae (fold increase in extracellular AK activity): 0.7
[1]; [10]
  AK-based Prestwick Library Screening Results, A. baumannii (fold increase in extracellular AK activity): 0.7
E. faecium; [10]
  AK-based Prestwick Library Screening Results, E. faecium (fold increase in extracellular AK activity): 0.8
P. aeruginosa; [10]
  AK-based Prestwick Library Screening Results, P. aeruginosa (fold increase in extracellular AK activity): 0.6
[2]; [10]
  AK-based Prestwick Library Screening Results, S. aureus (fold increase in extracellular AK activity): 0.6

## CN(C)C(=O)Oc1cc(OC(=O)N(C)C)cc(C(O)CNC(C)(C)C)c1 (stereo not drawn) [Bambuterol hydrochloride]
K. pneumoniae; [13]
  fold induction at 50 µM: 0.9
E. coli; [14]
  fold induction at 50 µM: 1.3
E. cloacae; [15]
  fold induction at 50 µM: 1.2
[1]; [16]
  fold induction at 50 µM: 1
E. faecium; [17]
  fold induction at 50 µM: 1.1
P. aeruginosa; [18]
  fold induction at 50 µM: 1.2
[2]; [19]
  fold induction at 50 µM: 1.2

## N[C@@H]1C[C@H]1c1ccccc1 [Tranylcypromine hydrochloride]
K. pneumoniae; [3]
  fold induction at 50 µM: 0.6
E. coli; [4]
  fold induction at 50 µM: 0.8
E. cloacae; [5]
  fold induction at 50 µM: 0.9
[1]; [6]
  fold induction at 50 µM: 0.9
E. faecium; [7]
  fold induction at 50 µM: 1
P. aeruginosa; [8]
  fold induction at 50 µM: 0.8
[2]; [9]
  fold induction at 50 µM: 0.8

## CC[C@H](C)C(=O)O[C@H]1C[C@@H](C)C=C2C=C[C@H](C)[C@H](CC[C@@H]3C[C@@H](O)CC(=O)O3)[C@H]21 [Lovastatin]
K. pneumoniae; [13]
  fold induction at 50 µM: 0.8
E. coli; [14]
  fold induction at 50 µM: 1
E. cloacae; [15]
  fold induction at 50 µM: 1.2
[1]; [16]
  fold induction at 50 µM: 1
E. faecium; [17]
  fold induction at 50 µM: 1
P. aeruginosa; [18]
  fold induction at 50 µM: 0.8
[2]; [19]
  fold induction at 50 µM: 0.3

## Cytisine (−)
K. pneumoniae
  AK-based Prestwick Library Screening Results, K. pneumoniae (fold increase in extracellular AK activity): 1.2
E. coli
  AK-based Prestwick Library Screening Results, E. coli (fold increase in extracellular AK activity): 1.3
E. cloacae
  AK-based Prestwick Library Screening Results, E. cloacae (fold increase in extracellular AK activity): 1.5
[1]
  AK-based Prestwick Library Screening Results, A. baumannii (fold increase in extracellular AK activity): 1.4
E. faecium
  AK-based Prestwick Library Screening Results, E. faecium (fold increase in extracellular AK activity): 1.0
P. aeruginosa
  AK-based Prestwick Library Screening Results, P. aeruginosa (fold increase in extracellular AK activity): 1.2
[2]
  AK-based Prestwick Library Screening Results, S. aureus (fold increase in extracellular AK activity): 1.0

## CCN(CC)CCc1nc(-c2ccccc2)no1.O=C(O)CC(O)(CC(=O)O)C(=O)O [Oxalamine citrate salt]
K. pneumoniae; [10]
  AK-based Prestwick Library Screening Results, K. pneumoniae (fold increase in extracellular AK activity): 0.7
E. coli; [10]
  AK-based Prestwick Library Screening Results, E. coli (fold increase in extracellular AK activity): 0.9
E. cloacae; [10]
  AK-based Prestwick Library Screening Results, E. cloacae (fold increase in extracellular AK activity): 1.2
[1]; [10]
  AK-based Prestwick Library Screening Results, A. baumannii (fold increase in extracellular AK activity): 0.8
E. faecium; [10]
  AK-based Prestwick Library Screening Results, E. faecium (fold increase in extracellular AK activity): 0.8
P. aeruginosa; [10]
  AK-based Prestwick Library Screening Results, P. aeruginosa (fold increase in extracellular AK activity): 0.9
[2]; [10]
  AK-based Prestwick Library Screening Results, S. aureus (fold increase in extracellular AK activity): 0.8

## CCC1=C(C)CN(C(=O)NCCc2ccc(S(=O)(=O)NC(=O)N[C@H]3CC[C@H](C)CC3)cc2)C1=O [Glimepiride]
K. pneumoniae; 50 μM final drug concentration, planktonic, cutoff for positive-scoring molecules 3-fold increase, read-out: AK-based Prestwick Library Screening Results, K. pneumoniae (fold increase in extracellular AK activity)
  fold induction at 50 µM: 0.7
E. coli; 50 μM final drug concentration, planktonic, cutoff for positive-scoring molecules 3-fold increase, read-out: AK-based Prestwick Library Screening Results, E. coli (fold increase in extracellular AK activity)
  fold induction at 50 µM: 0.5
E. cloacae; 50 μM final drug concentration, planktonic, cutoff for positive-scoring molecules 3-fold increase, read-out: AK-based Prestwick Library Screening Results, E. cloacae (fold increase in extracellular AK activity)
  fold induction at 50 µM: 0.9
[1]; 50 μM final drug concentration, planktonic, cutoff for positive-scoring molecules 3-fold increase, read-out: AK-based Prestwick Library Screening Results, A. baumannii (fold increase in extracellular AK activity)
  fold induction at 50 µM: 0.7
E. faecium; 50 μM final drug concentration, planktonic, cutoff for positive-scoring molecules 3-fold increase, read-out: AK-based Prestwick Library Screening Results, E. faecium (fold increase in extracellular AK activity)
  fold induction at 50 µM: 1.4
P. aeruginosa; 50 μM final drug concentration, planktonic, cutoff for positive-scoring molecules 3-fold increase, read-out: AK-based Prestwick Library Screening Results, P. aeruginosa (fold increase in extracellular AK activity)
  fold induction at 50 µM: 0.7
[2]; 50 μM final drug concentration, planktonic, cutoff for positive-scoring molecules 3-fold increase, read-out: AK-based Prestwick Library Screening Results, S. aureus (fold increase in extracellular AK activity)
  fold induction at 50 µM: 0.5
